Test results reported in US5929038A, “Pharmaceutical preparations which inhibit hepatitis B virus (HBV) replication” (Choongwae Pharmaceutical Co., Ltd., priority 1992, dated 1999).
Where “and” joins values, the source holds several entries; their conditions need not be identical. Identical values can stand only once. Entries after “also recorded” stand apart in the source; their conditions may differ. Like-named read-outs stand apart in the source and are kept apart here.

Key:
2.2.15 cells = assay: Cell toxicity test (neutral red dye uptake); format: cell-based; conditions: plate 23
Procedure: Toxicity testing was performed in 96-well flat bottomed tissue culture plates. These cells were cultured and treated on same schedule as the test compounds used for antiviral evaluation (example 1). Each group at four concentrations was tested in triplicate cultures. Uptake of neutral red dye was used to determine the relative level of toxicity. The absorbance of internalized dye at 510 nm (A510) was used for the quantitative analysis. Values are presented as a percentage of the average A510 values (mean ± standard deviation) in 9 separate cultures of untreated cells maintained on the same 96-well plate as used for the test compound. The percentage of dye uptake in the 9 controlled cultures on plate 23 was 100±4.

[1] = test system: liver damage caused by α-amantin intoxication; conditions: mice; cited from earlier work
mice = format: in vivo; conditions: for Alkaline phosphatase / SGOT / Triglyceride: serum at 24 hours; for Fatalities: 24 hours, ten mice
HBV DNA replication = assay: Effects on HBV DNA replication in 2.2.15 cells in culture (intracellular HBV DNA and HBV virion DNA); format: cell-based, hepatitis B virus; conditions: for Intracellular HBV DNA, Mono. / Intracellular HBV DNA, RI (Replicating Intermediate): 24 hrs following the 9th day of treatment; for HBV Virion DNA, Day 0: Day 0, before first dose
Sarcoma 180 cells = conditions: cited from earlier work
[2] = test system: hepatic damage induced by carbon tetrachloride; conditions: laboratory animals; cited from earlier work
gram positive bacteria = conditions: cited from earlier work
[3] = 30 μM + 30'Gly. (incubated 30 min with glycosidase)
[4] = 30 μM + Gly. (first group, 123AE/AF/BE/BF)
[5] = 30 μM + Gly. (second group, 123AG/AH/BG/BH)
[6] = 100 μM + 30'Gly. (incubated 30 min with glycosidase)
[7] = 300 μM + 30'Gly. (incubated 30 min with glycosidase)
[8] = 300 μM + Gly. (glucosidase, no incubation)
[9] = 1000 μM + 30'Gly. (incubated 30 min with glycosidase)
[10] = 1000 μM + Gly. (glucosidase, no incubation)

## OCC1=CC(O)C2C=COC(O[C@@H]3O[C@H](CO)[C@@H](O)[C@H](O)[C@H]3O)C12 (stereo partly drawn) [Aucubin, 1,4,5, 7α-tetrahydro-5-hydroxy-17-(hydroxymethyl)cyclopenta[c]pyran-1-yl-β-D-glucopyranose]
2.2.15 cells; Aucubin + 30'GLY. (preincubated 30 min with glucosidase), 300 μM
  Amount of dye uptake: 99 ± 2 % of control
2.2.15 cells; Aucubin + 30'GLY. (preincubated 30 min with glucosidase), 1000 μM
  Amount of dye uptake: 99 ± 2 % of control
2.2.15 cells; Aucubin + 30'GLY. (preincubated 30 min with glucosidase), 3000 μM
  Amount of dye uptake: 82 ± 2 % of control
2.2.15 cells; Aucubin + 30'GLY. (preincubated 30 min with glucosidase), 10,000 μM
  Amount of dye uptake: 67 ± 3 % of control
2.2.15 cells; Aucubin + GLY. (glucosidase without preincubation), 300 μM
  Amount of dye uptake: 99 ± 2 % of control
2.2.15 cells; Aucubin + GLY. (glucosidase without preincubation), 1000 μM
  Amount of dye uptake: 99 ± 1 % of control
2.2.15 cells; Aucubin + GLY. (glucosidase without preincubation), 3000 μM
  Amount of dye uptake: 93 ± 5 % of control
2.2.15 cells; Aucubin + GLY. (glucosidase without preincubation), 10,000 μM
  Amount of dye uptake: 63 ± 6 % of control
2.2.15 cells; Aucubin alone, 300 μM
  Amount of dye uptake: 99 ± 1 % of control
2.2.15 cells; Aucubin alone, 1000 μM
  Amount of dye uptake: 100 ± 1 % of control
2.2.15 cells; Aucubin alone, 3000 μM
  Amount of dye uptake: 85 ± 3 % of control
2.2.15 cells; Aucubin alone, 10,000 μM
  Amount of dye uptake: 45 ± 3 % of control
[1]
  Liver-protective activity against α-amantin: protects the liver from damages caused by α-amantin intoxication in mice
mice; 100 mg/kg i.p.
  Alkaline phosphatase: 236 IU/L
  SGOT: 261 IU/L
mice; 100 mg/kg intraperitoneal single dose
  Fatalities: 0 No.
mice; 300 mg/kg i.p.
  Alkaline phosphatase: 157 IU/L
  SGOT: 194 IU/L
  Triglyceride: 35 mg/dL
mice; 300 mg/kg intraperitoneal single dose
  Fatalities: 0 No.
mice; 600 mg/kg i.p.
  Alkaline phosphatase: 135 IU/L
  SGOT: 179 IU/L
  Triglyceride: 39 mg/dL
mice; 600 mg/kg intraperitoneal single dose
  Fatalities: 0 No.
mice; 900 mg/kg i.p.
  SGOT: 162 IU/L
  Triglyceride: 51 mg/dL
mice; 900 mg/kg intraperitoneal single dose
  Fatalities: 0 No.
mice; 100-900 mg/kg i.p.
  fatality (in words): no fatality
mice; high dose
  activities of SGOT and alkaline phosphatase: slight decline
  serious toxic effect (in words): no serious toxic effect occurred
  triglyceride contents: elevated slightly
mice; mouse, in vivo, ip
  minimum fatal dose: more than 900 mg/kg
HBV DNA replication
  inhibition of HBV DNA biosynthesis / antiviral activity (in words): exerts an antiviral activity aganist HBV infection; also recorded: marked inhibition of HBV DNA biosynthesis
HBV DNA replication; [3]
  Intracellular HBV DNA, Mono.: 2.5 pg/μg cell DNA and 2.4 pg/μg cell DNA and 2.3 pg/μg cell DNA and 2.7 pg/μg cell DNA
  Intracellular HBV DNA, RI (Replicating Intermediate): 92 pg/μg cell DNA and 68 pg/μg cell DNA and 59 pg/μg cell DNA
HBV DNA replication; 30 μM + 30'Gly.
  HBV Virion DNA, Day 0: 61 pg/ml culture medium and 79 pg/ml culture medium and 68 pg/ml culture medium
  HBV Virion DNA, Day 3: 85 pg/ml culture medium and 94 pg/ml culture medium and 51 pg/ml culture medium and 75 pg/ml culture medium
  HBV Virion DNA, Day 6: 70 pg/ml culture medium and 62 pg/ml culture medium and 55 pg/ml culture medium and 75 pg/ml culture medium
  HBV Virion DNA, Day 9: 80 pg/ml culture medium and 48 pg/ml culture medium and 87 pg/ml culture medium and 91 pg/ml culture medium
HBV DNA replication; [4]
  Intracellular HBV DNA, Mono.: 2.6 pg/μg cell DNA and 2.8 pg/μg cell DNA and 2.4 pg/μg cell DNA and 2.1 pg/μg cell DNA
  Intracellular HBV DNA, RI (Replicating Intermediate): 21 pg/μg cell DNA and 27 pg/μg cell DNA and 22 pg/μg cell DNA and 26 pg/μg cell DNA
  HBV Virion DNA, Day 0: 52 pg/ml culture medium and 76 pg/ml culture medium and 55 pg/ml culture medium
  HBV Virion DNA, Day 3: 59 pg/ml culture medium and 77 pg/ml culture medium and 51 pg/ml culture medium
  HBV Virion DNA, Day 6: 40 pg/ml culture medium and 48 pg/ml culture medium and 66 pg/ml culture medium and 59 pg/ml culture medium
  HBV Virion DNA, Day 9: 15 pg/ml culture medium and 22 pg/ml culture medium
HBV DNA replication; [5]
  Intracellular HBV DNA, Mono.: 2.6 pg/μg cell DNA and 2.8 pg/μg cell DNA and 2.4 pg/μg cell DNA and 2.1 pg/μg cell DNA
  Intracellular HBV DNA, RI (Replicating Intermediate): 70 pg/μg cell DNA and 75 pg/μg cell DNA and 63 pg/μg cell DNA and 68 pg/μg cell DNA
  HBV Virion DNA, Day 0: 67 pg/ml culture medium
  HBV Virion DNA, Day 3: 94 pg/ml culture medium and 82 pg/ml culture medium and 97 pg/ml culture medium and 62 pg/ml culture medium
  HBV Virion DNA, Day 6: 58 pg/ml culture medium and 61 pg/ml culture medium and 69 pg/ml culture medium
  HBV Virion DNA, Day 9: 55 pg/ml culture medium and 72 pg/ml culture medium and 70 pg/ml culture medium and 67 pg/ml culture medium
HBV DNA replication; [6]
  Intracellular HBV DNA, Mono.: 2.5 pg/μg cell DNA and 2.4 pg/μg cell DNA and 2.3 pg/μg cell DNA and 2.7 pg/μg cell DNA
  Intracellular HBV DNA, RI (Replicating Intermediate): 33 pg/μg cell DNA and 32 pg/μg cell DNA and 27 pg/μg cell DNA and 26 pg/μg cell DNA
HBV DNA replication; 100 μM + 30'Gly.
  HBV Virion DNA, Day 0: 55 pg/ml culture medium and 51 pg/ml culture medium and 86 pg/ml culture medium
  HBV Virion DNA, Day 3: 80 pg/ml culture medium and 49 pg/ml culture medium and 50 pg/ml culture medium and 57 pg/ml culture medium
  HBV Virion DNA, Day 6: 50 pg/ml culture medium and 66 pg/ml culture medium and 41 pg/ml culture medium and 45 pg/ml culture medium
  HBV Virion DNA, Day 9: 16 pg/ml culture medium
HBV DNA replication; [7]
  Intracellular HBV DNA, Mono.: 2.4 pg/μg cell DNA and 2.6 pg/μg cell DNA and 1.9 pg/μg cell DNA and 2.0 pg/μg cell DNA
  Intracellular HBV DNA, RI (Replicating Intermediate): 11 pg/μg cell DNA and 10 pg/μg cell DNA and 7 pg/μg cell DNA and 9 pg/μg cell DNA
HBV DNA replication; 300 μM + 30'Gly.
  HBV Virion DNA, Day 0: 88 pg/ml culture medium and 51 pg/ml culture medium and 50 pg/ml culture medium and 59 pg/ml culture medium
  HBV Virion DNA, Day 3: 80 pg/ml culture medium and 55 pg/ml culture medium and 61 pg/ml culture medium
  HBV Virion DNA, Day 6: 54 pg/ml culture medium and 39 pg/ml culture medium and 44 pg/ml culture medium
  HBV Virion DNA, Day 9: 9 pg/ml culture medium and 7 pg/ml culture medium and 6 pg/ml culture medium and 8 pg/ml culture medium
HBV DNA replication; [8]
  Intracellular HBV DNA, Mono.: 2.0 pg/μg cell DNA and 2.4 pg/μg cell DNA and 2.5 pg/μg cell DNA
  Intracellular HBV DNA, RI (Replicating Intermediate): 7 pg/μg cell DNA and 6 pg/μg cell DNA and 5 pg/μg cell DNA and 9 pg/μg cell DNA
HBV DNA replication; 300 μM + Gly.
  HBV Virion DNA, Day 0: 54 pg/ml culture medium and 59 pg/ml culture medium and 77 pg/ml culture medium and 66 pg/ml culture medium
  HBV Virion DNA, Day 3: 66 pg/ml culture medium and 89 pg/ml culture medium and 98 pg/ml culture medium
  HBV Virion DNA, Day 6: 54 pg/ml culture medium and 48 pg/ml culture medium and 44 pg/ml culture medium and 51 pg/ml culture medium
  HBV Virion DNA, Day 9: 9 pg/ml culture medium and 7 pg/ml culture medium and 5 pg/ml culture medium and 6 pg/ml culture medium
HBV DNA replication; [9]
  Intracellular HBV DNA, Mono.: 2.3 pg/μg cell DNA and 2.0 pg/μg cell DNA and 2.1 pg/μg cell DNA
  Intracellular HBV DNA, RI (Replicating Intermediate): 3 pg/μg cell DNA and 2 pg/μg cell DNA and 4 pg/μg cell DNA
HBV DNA replication; 1000 μM + 30'Gly.
  HBV Virion DNA, Day 0: 84 pg/ml culture medium and 70 pg/ml culture medium and 79 pg/ml culture medium and 59 pg/ml culture medium
  HBV Virion DNA, Day 3: 67 pg/ml culture medium and 66 pg/ml culture medium and 78 pg/ml culture medium
  HBV Virion DNA, Day 6: 20 pg/ml culture medium and 17 pg/ml culture medium and 24 pg/ml culture medium
  HBV Virion DNA, Day 9: 2 pg/ml culture medium and 3 pg/ml culture medium
HBV DNA replication; [10]
  Intracellular HBV DNA, Mono.: 2.2 pg/μg cell DNA and 2.1 pg/μg cell DNA and 2.3 pg/μg cell DNA and 2.6 pg/μg cell DNA
  Intracellular HBV DNA, RI (Replicating Intermediate): 3 pg/μg cell DNA and 2 pg/μg cell DNA
HBV DNA replication; 1000 μM + Gly.
  HBV Virion DNA, Day 0: 64 pg/ml culture medium and 81 pg/ml culture medium and 80 pg/ml culture medium
  HBV Virion DNA, Day 3: 70 pg/ml culture medium and 67 pg/ml culture medium
  HBV Virion DNA, Day 6: 25 pg/ml culture medium and 18 pg/ml culture medium and 22 pg/ml culture medium and 20 pg/ml culture medium
  HBV Virion DNA, Day 9: 1 pg/ml culture medium
Sarcoma 180 cells
  Inhibitory effects on RNA and protein biosynthesis: can exert inhibitory effects on RNA and protein biosynthesis in Sarcoma 180 cells
[2]
  Liver-protective activity against carbon tetrachloride: protect the liver from hepatic damage induced by carbon tetrachloride intoxication
Gram positive bacteria
  Antibacterial activity: Antibacterial activity was noted mainly on gram positive bacteria
